One assay has as its system ABCG8 mRNA. As to the kind of experiment: Real-time PCR, ABCG8 mRNA. It is filed as in vivo, mouse. As to conditions: for increase of ABCG8 mRNA levels compared with controls: small intestine, P<0.01. How it is done: FIGS. 9A-F depict that Mouse small intestine and liver NPC1L1, ABCG5/G8, and ABCA1 mRNA measurements. NPC1L1, ABCG5/G8, and ABCA1 mRNA levels were measured by real-time PCR as described in “Methods and Materials.” FIG. 9A, jejunum from WT mice with or without myriocin treatment; FIG. 9B, jejunum from apoE KO mice with or without myriocin treatment; FIG. 9C, jejunum from WT and Sptlc1^+/− mice; FIG. 9D, liver from WT mice with or without myriocin treatment; FIG. 9E, liver from apoE KO mice with or without myriocin treatment; FIG. 9F, liver from WT and Sptlc1^+/− mice. Values are mean±SD, n=5. *P<0.01.
Real-time PCR examined genes' expression: Mice were sacrificed by cervical dislocation. Jejunum was dissected, and total RNA extracted with Trizol (Invitrogen). cDNA was synthesized with an Invitrogen kit. Polymerase chain reaction (PCR) was performed on a total volume of 20 microl with the sybergreen kit from Applied Biosystems, 18S being used as an internal control. The amplification program consisted of activation at 95 degrees C. for 10 minutes, followed by 40 amplification cycles: 95 degrees C. for 15 seconds, 60 degrees C. for 1 minute. Each sample was triplicated. The genes' relative expression was expressed as mean±SD. The primers are located in the below table which lists the name, sequence, and sequence identification number.
For further elucidation of the possible mechanisms for cholesterol absorption reduction in the SPT-deficient small intestine, NPC1L1, ABCG5/G8, and ABCA1 mRNA levels in myriocin-treated WT, apoE KO, and Sptlc1^+/− mice, as well as in controls were measured. […] Moreover, intestinal MTP activity was not influenced by SPT deficiency (data not shown). Also, the liver mRNA levels were measured to find that myriocin treatment or Sptlc1 deficiency has no influence on ABCG5/G8 mRNA levels […]. […] NPC1L1 mRNA in WT or Sptlc1^+/− livers were not detected (data not shown).

Assay [1] addresses T1, Serine palmitoylCoA transferase (SPT) (Mus musculus, UniProt O35704+P97363).
T1 construct: from tissue; host or cells: small intestine homogenate of C57BL/6J WT and apoE KO mice fed chow with or without myriocin
T1 sequence (O35704 1-473): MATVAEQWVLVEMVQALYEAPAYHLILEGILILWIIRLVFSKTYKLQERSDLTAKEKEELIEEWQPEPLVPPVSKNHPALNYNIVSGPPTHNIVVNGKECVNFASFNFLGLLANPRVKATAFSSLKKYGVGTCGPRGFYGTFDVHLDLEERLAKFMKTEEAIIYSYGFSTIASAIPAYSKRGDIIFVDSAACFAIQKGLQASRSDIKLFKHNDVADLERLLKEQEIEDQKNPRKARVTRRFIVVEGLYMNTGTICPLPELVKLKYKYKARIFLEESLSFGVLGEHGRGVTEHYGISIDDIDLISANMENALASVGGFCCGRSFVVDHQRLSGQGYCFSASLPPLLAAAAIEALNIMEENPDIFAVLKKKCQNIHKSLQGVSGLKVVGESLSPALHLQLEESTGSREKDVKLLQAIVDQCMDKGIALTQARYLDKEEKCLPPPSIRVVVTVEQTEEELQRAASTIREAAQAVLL
T1 sequence (P97363 1-560): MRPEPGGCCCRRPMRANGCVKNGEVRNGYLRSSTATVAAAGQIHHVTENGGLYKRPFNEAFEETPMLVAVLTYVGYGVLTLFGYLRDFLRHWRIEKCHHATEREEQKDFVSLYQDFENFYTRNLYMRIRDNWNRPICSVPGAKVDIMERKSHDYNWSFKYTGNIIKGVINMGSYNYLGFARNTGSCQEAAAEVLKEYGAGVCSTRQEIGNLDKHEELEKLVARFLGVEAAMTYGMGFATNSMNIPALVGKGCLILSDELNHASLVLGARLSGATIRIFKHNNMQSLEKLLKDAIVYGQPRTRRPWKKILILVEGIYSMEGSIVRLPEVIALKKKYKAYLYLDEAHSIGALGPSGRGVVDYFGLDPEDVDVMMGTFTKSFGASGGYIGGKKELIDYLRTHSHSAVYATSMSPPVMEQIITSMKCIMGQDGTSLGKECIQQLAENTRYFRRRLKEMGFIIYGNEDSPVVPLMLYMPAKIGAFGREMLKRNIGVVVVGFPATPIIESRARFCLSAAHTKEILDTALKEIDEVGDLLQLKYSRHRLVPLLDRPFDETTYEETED
T1 sequence (Q8R207 1-71 partner): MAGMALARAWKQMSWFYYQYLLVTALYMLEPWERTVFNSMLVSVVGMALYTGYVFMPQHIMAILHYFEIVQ
As to the kind of experiment: Tissue SPT activity assay, small intestine homogenate of treated mice. It is filed as in vivo. As to conditions: chow diet plus myriocin for 3 weeks, vs chow controls. How it is done: FIGS. 1A-1C depict three graphical representations of SPT deficiency decreased SPT activity in mouse small intestine. SPT activity of small intestine homogenate was measured with […] and palmitoyl-coenzyme A as substrates. TLC was performed to separate the product, 3-keto-dihydrosphingosine (KDS, Inset). KDS band was scanned. In FIG. 1A, wildtype (WT) mice fed chow diet or chow diet plus myriocin. In FIG. 1B, apoE KO (knockout)
Mice and diet: Male C57BL/6J and apoE KO (Apolipoprotien E knockout) mice with a C57BL/6J background were obtained from the Jackson Laboratory (Bar Harbor, Me.). Sptlc1 heterozygous KO mice with a C57BL/6 background were created and bred in the inventors' laboratory. Myriocin was mixed with a chow diet. […] The myriocin dose was chosen from a previous dose-dependent experiment with apoE-KO mice. Controls consisted of WT or apoE KO mice fed a chow diet (n=6). Sptlc1 heterozygous KO (Sptlc1^+/−)(n=6) and WT mice were also fed a chow diet.
Tissue SPT activity assay: Mouse small intestine (0.2 g) was homogenized in 0.5 ml of 50 mM Tris-HCl, pH 7.4, 5 mM EDTA, and 250 mM sucrose. SPT activity in the homogenates was measured with [^14C]-serine and palmitoyl-coenzyme A for substrates, as previously described (22), which is incorporated herein by reference in its entirety. […]

Turning to `CCCCCCC(=O)CCCCCC/C=C/C[C@@H](O)[C@H](O)[C@@](N)(CO)C(=O)O` [Myriocin, myriocin], in the assay with ABCG8 mRNA (liver), the “ABCG8 mRNA levels (printed ABCG5/G8)” value is “no influence”. Further, the “increase of ABCG8 mRNA levels compared with controls” value in the assay on ABCG8 mRNA (WT mice) stood at 46%; with ABCG8 mRNA (apoE KO mice), 63%. The “less SPT activity than controls in the small intestine” value in assay [1] (WT mice) came out at 60%; in assay [1] (apoE KO mice) it was 65%.

(Values after US20090264528A1, “SERINE PALMITOYLCOA TRANSFERASE (SPT) INHIBITION BY MYRIOCIN OR GENETIC DEFICIENCY DECREASES CHOLESTEROL ABSORPTION” (The Research Foundation of State University of New York, priority 2008, published 2009).)
